The values below come from US20240148664A1, “LIPID AND COMPOSITION” (SOGO PHARMACEUTICAL CO., LTD., priority 2021, published 2024).

Structures are written as SMILES.

This test relates to HT1080-EGFP (human/fibrosarcoma) cells. Put plainly: Evaluation of knockdown effect (GFP assay), Cell experiment 1. To be noted: lipid nanoparticle containing siRNA against EGFP; fluorescence intensity with control cells without lipid nanoparticle set at 100. The test is classed as cell-based. How it is done: A cell experiment was carried out by using HT1080-EGFP (human/fibrosarcoma) cells in order to evaluate lipid nanoparticles encapsulating an siRNA produced by using the lipids of the Examples and the Comparative Examples. These cells are cells provided with a green fluorescent protein gene (EGFP). The expression of EGFP can be easily confirmed by measuring the fluorescence intensity of a solution in which the cells are lysed, and thus by acting lipid nanoparticles encapsulating an siRNA that suppresses the expression of EGFP and observing any decrease in fluorescence intensity, the performance of the lipid nanoparticles used can be evaluated. Hereinafter, the procedure of the cell experiment will be shown.
A. Provision of Cells • (i) A liquid medium (DMEM/Ham's F12, FBS+, P/S+) (FBS: fetal bovine serum, P/S: antibiotic) was taken out from a refrigerator and temperature-controlled in an incubator set at 37° C. • (ii) A cryotube containing the cells was taken out from a −80° C. freezer and thawed at once in an incubator set at 37° C. • (iii) A stock solution of the thawed cells was collected in a capped test tube. • (iv) The tube containing the cells was washed with the liquid medium, and the wash was also collected in the test tube. • (v) The tube was subjected to a centrifuge to precipitate the cells. • (vi) The supernatant was aspirated, and the liquid medium was added and gently tapped to disperse the cells. • (vii) A small amount of the cells-dispersed liquid medium was collected, and the number of cells was observed and counted under a microscope. • (viii) The cells were seeded in a 24-well plate such that the number of cells was 2×10^4 cells per well. For the plate for an LDH assay described later, the cells were seeded in a 96-well plate such that the number of cells was 4×10^3 cells per well. • (ix) The 24-well plate or the 96-well plate was placed in an incubator, and the cells were cultured for 24 hours under conditions of 37° C. and 5% CO2.
The produced lipid nanoparticles were introduced into cells. • (i) Fetal bovine serum (FBS) was added to a liquid medium (FBS-, P/S-) temperature-controlled as in (i) of A above, in such a way as to reach 10%. • (ii) A 24-well plate was taken out from an incubator, and the liquid medium supernatant in the 24-well plate was aspirated and washed with phosphate buffered saline (PBS). • (iii) 400 μL of the liquid medium produced in (i) above was added to the washed 24-well plate. In addition, 100 μL of an LNP solution having an adjusted concentration was added. • (iv) The 24-well plate was placed in the incubator, and the cells were cultured (for 24 hours). • (v) After 24 hours, the liquid medium supernatant in the 24-well plate was aspirated, and 500 μL of a liquid medium containing 10% FBS (FBS+/P/S+) was added. • (vi) The 24-well plate was placed in the incubator, and the cells were cultured for 24 hours under conditions of 37° C. and 5% CO2.
By carrying out a GFP assay, the EGFP expression level in cells was measured to evaluate the effect of knocking down the green fluorescent protein gene (EGFP) by lipid nanoparticles. • (i) A 24-well plate was taken out from an incubator and washed with PBS. • (ii) A 1% octylglucoside solution to which a protease inhibitor was added was added in order to disrupt cells. Stirring with a pipette lysed the cells. • (iii) The cell lysate was transferred to an Eppendorf tube and subjected to a centrifuge. • (iv) 150 μL of the supernatant was collected and added to a plate for fluorescence measurement. • (v) The fluorescence intensity was measured under conditions of an excitation wavelength of 485 nm and a fluorescence wavelength of 535 nm with a plate reader (manufactured by TECAN, Infinite M200). The fluorescence intensity was calculated with the fluorescence intensity of control cells to which no lipid nanoparticle was added set at 100.
Turning to `CCCCCCCC/C=C\CCCCCCCCC(CCCCCCC/C=C\CCCCCCCC)OC(=O)[C@H](CCSC)NC(=O)[C@@H](N)CCCNC(=N)N` (stereo partly shown) [Example 6, (9Z,27Z)-hexatriaconta-9,27-dien-18-yl arginylmethioninate], the “GFP Assay” value was determined as 40.

With `CCCCCCCC/C=C\CCCCCCCCC(CCCCCCC/C=C\CCCCCCCC)OC(=O)C(CCC(=O)O)NC(=O)C(N)CCCNC(=N)N` (stereo not shown) [Example 2, 4-(2-amino-5-guanidinopentanamido)-5-(((9Z,27Z)-hexatriaconta-9,27-dien-18-yl)oxy)-5-oxopentanoic acid], the “GFP Assay” value was 24. As for `CCCCCCCC/C=C\CCCCCCCCC(CCCCCCC/C=C\CCCCCCCC)OC(=O)C(CCC(=O)O)NC(=N)N` (stereo not shown) [Comparative Example 3, 4-guanidino-5-(((9Z,27Z)-hexatriaconta-9,27-dien-18-yl)oxy)-5-oxopentanoic acid, reference compound], the “GFP Assay” value came to 102.

Consider `CCCCCCCC/C=C\CCCCCCCCC(CCCCCCC/C=C\CCCCCCCC)OC(=O)C(CC(=O)O)NC(=O)C(N)CCCNC(=N)N` (stereo not shown) [Example 1, 3-(2-amino-5-guanidinopentanamido)-4-(((9Z,27Z)-hexatriaconta-9,27-dien-18-yl)oxy)-4-oxobutanoic acid], for which the “GFP Assay” value is recorded as 28. Then `CCCCCCCC/C=C\CCCCCCCCC(CCCCCCC/C=C\CCCCCCCC)OC(=O)C(CO)NC(=O)C(N)CCCNC(=N)N` [Example 4, (9Z,27Z)-hexatriaconta-9,27-dien-18-yl (2S)-2-((S)-2-amino-5-guanidinopentanamido)-3-hydroxypropionate], with 7; and `CCCCCCCC/C=C\CCCCCCCCC(CCCCCCC/C=C\CCCCCCCC)OC(=O)C(NC(=O)C(N)CCCNC(=N)N)C(C)O` [Example 5, (9Z,27Z)-hexatriaconta-9,27-dien-18-yl (2S)-2-((S)-2-amino-5-guanidinopentanamido)-3-hydroxybutanoate], with 22; and `CCCCCCCC/C=C\CCCCCCCCC(CCCCCCC/C=C\CCCCCCCC)OC(=O)C(CC(=O)O)NC(=N)N` (stereo not shown) [Comparative Example 2, 3-guanidino-4-(((9Z,27Z)-hexatriaconta-9,27-dien-18-yl)oxy)-4-oxobutanoic acid, reference compound], with 97.
